According to US9532519B2, “Plant growth regulator and use thereof” (Japan Science and Technology Agency, priority 2006, dated 2017):

Assays:
Type in all cases: in vivo
[1] = system: strawberry (breed; Eminent garden series, Yokubari-ichigo kurenai (SUMIKA)); test: Effect of oxidized glutathione on growth of strawberry (number of runners); conditions: GSH-treated zone
[2] = system: eustoma; test: Effect on promoting growth of roots of eustoma; conditions: MS culture medium containing 1 mM-GSSG or GSH, grown 1 month, transferred to planter
Description: In the planter, 2 parts of vermiculite, 1 part of The Kureha Ikubyou Baido soil, and 1 part of vermiculite were layered as a lower layer, a middle layer, and an upper layer, respectively, and the above plants were transferred thereto.

[3] = system: Arabidopsis; test: Influence of oxidized glutathione on growth of Arabidopsis; conditions: 5 mM H2O2 solution; 8 weeks after the sowing
Description: Specifically, the plants were cultivated with two or three plants in one pod of approximately 65 in width, 65 in depth, and 50 in height, and an appropriate amount of a treatment solution was supplied. The effect of the treatment was evaluated with respect to the number of rosette leaves, the speed of a growing flower stalk, the number of flowers, and the number of seeds.

Row | SMILES | increase in the number of runners relative to the increase of the GSSG-treated zone [1] | number of runners per one stock vs Cont zone [1] | growth of roots vs plants not treated with GSSG [2] | state of plant (life of plant) [3]
1 | N[C@@H](CCC(=O)N[C@@H](CS)C(=O)NCC(=O)O)C(=O)O [GSH, reduced glutathione] | approximately one third | more number of runners per one stock than a Cont zone | subdued growth of roots | –
2 | OO [H2O2, reference compound] | – | – | – | withering
